Source: the Kinase Knowledgebase extract (Sharma et al. 2016)

Columns and labels:
CDK2 (human) = CDK2 (human) (UniProt P24941); experiment: Cell-Based Assay; conditions: a2780
CDK2 = CDK2 (UniProt P24941); experiment: Enzyme Assay

Row | Compound | IC50 (CDK2 (human)) [µM] | IC50 (CDK2) [µM]
1 | NC(=O)c1nn(-c2ccc(OC(F)(F)F)cc2)c2c1CCc1[nH]ncc1-2 | > 20 | –
2 | CC(=O)c1nn(-c2ccc(C)cc2)c2c1CCc1[nH]ncc1-2 | > 20 | –
3 | C=CCONC(=O)c1nn(-c2ccc(S(=O)(=O)NCCC)cc2)c2c1ccc1[nH]ncc12 | 8.7 | 0.2
4 | NC(=O)c1nn(-c2ccc(Cl)cc2)c2c1CCc1[nH]ncc1-2 | > 20 | –
5 | NC(=O)c1nn(-c2ccc(-c3ncc[nH]3)cc2)c2c1ccc1[nH]ncc12 | > 20 | –
6 | COc1ccc(-n2nc(C(=O)O)c3ccc4[nH]ncc4c32)cc1 | > 20 | –
7 | CNS(=O)(=O)c1ccc(-n2nc(C(N)=O)c3c2-c2cn[nH]c2CC3)cc1 | > 20 | –
8 | CCCCNS(=O)(=O)c1ccc(-n2nc(C(=O)NC)c3ccc4[nH]ncc4c32)cc1 | 2.9 | –
9 | N#Cc1ccc(-n2nc(C(N)=O)c3c2-c2cn[nH]c2CC3)cc1 | > 20 | –
10 | CN1CCN(S(=O)(=O)c2ccc(-n3nc(C(N)=O)c4ccc5[nH]ncc5c43)cc2)CC1 | > 20 | –
11 | CC(=O)c1nn(-c2ccc(C)cc2)c2c1C(C)(C)Cc1[nH]ncc1-2 | 1.65 | 0.087
12 | CS(=O)(=O)c1ccc(-n2nc(C(N)=O)c3c2-c2cn[nH]c2CC3)cc1 | > 20 | –
13 | NC(=O)c1nn(-c2ccc(-c3ncc[nH]3)cc2)c2c1CCc1[nH]ncc1-2 | > 20 | –
14 | CNS(=O)(=O)c1ccc(-n2nc(C(N)=O)c3ccc4[nH]ncc4c32)cc1 | > 20 | –
15 | NC(=O)c1nn(Cc2ccccc2)c2c1ccc1[nH]ncc12 | 2.98 | –
16 | NC(=O)c1nn(-c2ccc(C(F)(F)F)cc2)c2c1CCc1[nH]ncc1-2 | > 20 | –
17 | CCCCNS(=O)(=O)c1ccc(-n2nc(C(=O)NC)c3c2-c2cn[nH]c2CC3)cc1 | 10.2 | –
